The record followed here is ChEMBL document CHEMBL2073780, “The antiprogestatin drug RU 486 potentiates doxorubicin cytotoxicity in multidrug resistant cells through inhibition of P-glycoprotein function” (FEBS Lett, 1994).

Molecules are shown by their SMILES.

Holding throughout (type): functional, cell-based
The target of data set [1] is Multidrug resistance protein 1a (Rattus norvegicus) (UniProt Q6PSM0). Put plainly: TP_TRANSPORTER: increase in Doxorubicin intracellular accumulation (Doxorubicin: 10 ug/mL, Progesterone: 10 uM) in RHC1 cells.
Data set [2] has the same target. Put plainly: TP_TRANSPORTER: increase in Doxorubicin intracellular accumulation (Doxorubicin: 10 ug/mL, RU486: 10 uM) in RHC1 cells.
Data set [3] deals with ATP-dependent translocase ABCB1 (Homo sapiens, UniProt P08183). In words: TP_TRANSPORTER: increase in Doxorubicin intracellular accumulation (Doxorubicin: 10 ug/mL, RU486: 10 uM) in K562 R7 cells. The settings on record: k562/r7, 10 µM.
Chain of ATP-dependent translocase ABCB1 (P08183 whole entry): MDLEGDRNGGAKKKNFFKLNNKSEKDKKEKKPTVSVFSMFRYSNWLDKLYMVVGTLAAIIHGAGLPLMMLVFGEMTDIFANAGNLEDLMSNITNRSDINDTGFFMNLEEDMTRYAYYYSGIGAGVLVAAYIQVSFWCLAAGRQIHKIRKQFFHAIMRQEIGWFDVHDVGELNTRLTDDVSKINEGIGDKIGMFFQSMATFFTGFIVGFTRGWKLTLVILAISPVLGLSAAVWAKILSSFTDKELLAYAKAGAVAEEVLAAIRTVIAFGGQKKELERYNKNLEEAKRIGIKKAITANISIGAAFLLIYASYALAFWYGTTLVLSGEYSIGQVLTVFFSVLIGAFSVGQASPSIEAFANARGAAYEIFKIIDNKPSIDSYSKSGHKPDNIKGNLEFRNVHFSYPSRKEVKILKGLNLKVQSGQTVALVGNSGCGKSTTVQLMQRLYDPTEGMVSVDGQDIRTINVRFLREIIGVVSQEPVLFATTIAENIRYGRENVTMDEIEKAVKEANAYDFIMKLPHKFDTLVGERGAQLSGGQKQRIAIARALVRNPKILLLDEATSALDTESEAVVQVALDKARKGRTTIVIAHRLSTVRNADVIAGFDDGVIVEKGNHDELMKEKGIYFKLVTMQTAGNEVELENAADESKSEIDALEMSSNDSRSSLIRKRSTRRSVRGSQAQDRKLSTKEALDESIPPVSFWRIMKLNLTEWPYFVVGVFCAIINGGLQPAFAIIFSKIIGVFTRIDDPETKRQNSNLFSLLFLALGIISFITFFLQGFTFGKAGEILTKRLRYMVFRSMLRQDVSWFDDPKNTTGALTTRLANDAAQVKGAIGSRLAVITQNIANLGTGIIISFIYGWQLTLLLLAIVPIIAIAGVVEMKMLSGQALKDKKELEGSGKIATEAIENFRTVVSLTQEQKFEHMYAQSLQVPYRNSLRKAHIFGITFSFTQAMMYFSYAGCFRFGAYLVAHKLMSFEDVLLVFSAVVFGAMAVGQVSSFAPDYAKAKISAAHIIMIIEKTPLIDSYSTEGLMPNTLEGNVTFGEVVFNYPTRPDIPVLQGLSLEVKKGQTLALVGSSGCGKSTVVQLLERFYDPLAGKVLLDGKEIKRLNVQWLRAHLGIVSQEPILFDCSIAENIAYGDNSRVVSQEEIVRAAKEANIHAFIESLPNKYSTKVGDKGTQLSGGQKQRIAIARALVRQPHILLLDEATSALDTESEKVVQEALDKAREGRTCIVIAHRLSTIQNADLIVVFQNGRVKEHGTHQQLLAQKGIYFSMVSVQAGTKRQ

Chain of Multidrug resistance protein 1a (Rattus norvegicus) (Q6PSM0 as listed by the source): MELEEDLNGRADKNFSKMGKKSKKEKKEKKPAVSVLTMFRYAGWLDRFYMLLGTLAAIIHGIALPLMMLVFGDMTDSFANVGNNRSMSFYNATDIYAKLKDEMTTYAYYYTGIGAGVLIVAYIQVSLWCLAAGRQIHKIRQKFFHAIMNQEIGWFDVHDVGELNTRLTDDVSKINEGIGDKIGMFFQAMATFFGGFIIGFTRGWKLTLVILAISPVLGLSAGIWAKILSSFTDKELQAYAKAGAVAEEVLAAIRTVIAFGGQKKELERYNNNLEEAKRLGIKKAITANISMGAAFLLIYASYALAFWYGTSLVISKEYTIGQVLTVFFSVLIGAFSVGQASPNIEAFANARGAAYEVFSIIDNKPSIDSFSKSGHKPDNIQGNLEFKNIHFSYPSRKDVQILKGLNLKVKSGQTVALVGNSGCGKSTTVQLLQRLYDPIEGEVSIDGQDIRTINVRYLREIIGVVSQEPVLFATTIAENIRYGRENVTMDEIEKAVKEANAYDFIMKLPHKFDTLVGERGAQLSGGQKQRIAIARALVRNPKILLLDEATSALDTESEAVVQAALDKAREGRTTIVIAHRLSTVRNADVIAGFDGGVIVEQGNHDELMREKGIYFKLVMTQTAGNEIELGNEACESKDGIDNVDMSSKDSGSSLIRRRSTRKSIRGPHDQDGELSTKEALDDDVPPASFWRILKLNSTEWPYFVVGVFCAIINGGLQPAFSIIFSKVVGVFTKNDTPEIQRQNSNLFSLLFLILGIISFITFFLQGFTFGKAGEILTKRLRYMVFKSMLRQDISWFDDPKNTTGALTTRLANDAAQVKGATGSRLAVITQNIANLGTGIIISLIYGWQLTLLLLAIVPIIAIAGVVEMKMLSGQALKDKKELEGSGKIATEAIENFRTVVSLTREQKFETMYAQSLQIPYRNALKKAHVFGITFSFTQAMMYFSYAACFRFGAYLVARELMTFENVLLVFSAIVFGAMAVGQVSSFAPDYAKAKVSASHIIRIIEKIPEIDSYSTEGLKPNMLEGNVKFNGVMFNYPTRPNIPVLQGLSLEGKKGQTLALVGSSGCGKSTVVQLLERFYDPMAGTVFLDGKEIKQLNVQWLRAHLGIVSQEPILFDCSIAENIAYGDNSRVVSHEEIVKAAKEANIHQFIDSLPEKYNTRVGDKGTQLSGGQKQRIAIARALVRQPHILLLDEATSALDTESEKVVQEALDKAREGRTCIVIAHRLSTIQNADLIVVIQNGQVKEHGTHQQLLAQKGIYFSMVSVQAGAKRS

As for `CC(=O)[C@H]1CC[C@H]2[C@@H]3CCC4=CC(=O)CC[C@]4(C)[C@H]3CC[C@]12C`, the Activity entry in data set [1] is “inhibitor [+]”.

With `CC#C[C@]1(O)CC[C@H]2[C@@H]3CCC4=CC(=O)CCC4=C3[C@@H](c3ccc(N(C)C)cc3)C[C@@]21C` [MIFEPRISTONE], the Activity entry in data set [2] and in data set [3] was “inhibitor [+]” in each case.
